The record followed here is patent publication US10358435B2, “Triazolyl pyrimidinone compounds as PDE2 inhibitors” (Merck Sharp & Dohme Corp., priority 2015, dated 2019).

The assay addresses human PDE2A1 (Homo sapiens (Human), UniProt O00408). The experiment in a line: IMAP fluorescence polarization assay, human PDE2A1 (PDE selectivity panel). The class given is biochemical. The note with it: for Ki: FAM cAMP 50 nM with 1000 nM cGMP. The procedure: The activity of the compounds in accordance with the present invention as PDE2 inhibitors may be readily determined using a fluorescence polarization (FP) methodology (Huang, W., et al., J. Biomol Screen, 2002, 7: 215).
Dose-inhibition profiles for each compound were characterized by fitting the mP data to a four-parameter equation given below.
Selectivity for PDE2, as compared to other PDE families, was assessed using the IMAP® technology. Human PDE10A2 enzyme was prepared from cytosolic fractions of transiently transfected HEK cells. All other PDE's were GST Tag human enzyme expressed in insect cells and were obtained from BPS Bioscience (San Diego, Calif.): PDE1A (Cat#60010), human PDE2A1 (Cat#60020), PDE3A (Cat#60030), PDE4A1A (Cat#60040), PDE5A1 (Cat#60050), PDE6C (Cat#60060), PDE7A (Cat#60070), PDE8A1 (Cat#60080), PDE9A2 (Cat#60090), PDE11A4 (Cat#60110).
Assays for PDE 1 through 11 were performed in parallel at room temperature in 384-well microtiter plates with an incubation volume of 20.2 μL. Solutions of test compounds were prepared in DMSO and serially diluted with DMSO to yield 30 μL of each of ten solutions differing by 3-fold in concentration, at 32 serial dilutions per plate. […] A Labcyte POD 810 (Labcyte, Sunnyvale, Calif.) was used to dispense 200 nL from each well of the titration plate to make eleven copies of the assay plate for each titration, one copy for each PDE enzyme. A solution of each enzyme (dilution from aliquots, sufficient to produce 20% substrate conversion) and a separate solution of FAM-labeled cAMP or FAM-labeled cGMP from Molecular Devices (Sunnyvale, Calif., product # R7506 or cGMP#R7508), at a final concentration of 50 nM were made in the assay buffer (10 mM Tris HCl, pH 7.2, 10 mM MgCl2, 0.05% NaN3 0.01% Tween-20, and 1 mM DTT). Note that the substrate for PDE2 is 50 nM FAM cAMP containing 1000 nM of cGMP. The enzyme and the substrate were then added to the assay plates in two consecutive additions of 10 μL and then shaken to mix. The reaction was allowed to proceed at room temperature for 60 minutes. A binding solution was then made from the kit components, comprised of 80% Solution A, 20% Solution B and binding reagent at a volume of 1/600 the total binding solution. The enzymatic reaction was stopped by addition of 60 μL of the binding solution to each well of the assay plate. The plates were sealed and shaken for 10 seconds. The plates were incubated at room temperature for one hour, then the parallel and perpendicular fluorescence was measured using a Tecan Genios Pro plate reader (Tecan, Switzerland). The apparent inhibition constants for the compounds against all 11 PDE's was determined from the parallel and perpendicular fluorescent readings as described for PDE10 FP assay using the following apparent KM values for each enzyme and substrate combination: PDE1A (FAM cGMP) 70 nM, human PDE2A1 (FAM cAMP) 10,000 nM, PDE3A (FAM cAMP) 50 nM, PDE4A1A (FAM cAMP) 1500 nM, PDE5A1 (FAM cGMP) 400 nM, PDE6C (FAM cGMP) 700 nM, PDE7A (FAM cAMP) 150 nM, PDE8A1 (FAM cAMP) 50 nM, PDE9A2 (FAM cGMP) 60 nM, PDE10A2 (FAM cAMP) 150 nM, PDE11A4 (FAM cAMP) 1000 nM. The intrinsic PDE2 inhibitory activity of a compound which may be used in accordance with the present invention may be determined by these assays.
Background: Fluorescence polarisation rises when a labelled molecule tumbles more slowly, as on binding a larger partner.

Structures are written as SMILES.

Sequence of human PDE2A1 (O00408 other isoform, or with tags, fused parts or gaps): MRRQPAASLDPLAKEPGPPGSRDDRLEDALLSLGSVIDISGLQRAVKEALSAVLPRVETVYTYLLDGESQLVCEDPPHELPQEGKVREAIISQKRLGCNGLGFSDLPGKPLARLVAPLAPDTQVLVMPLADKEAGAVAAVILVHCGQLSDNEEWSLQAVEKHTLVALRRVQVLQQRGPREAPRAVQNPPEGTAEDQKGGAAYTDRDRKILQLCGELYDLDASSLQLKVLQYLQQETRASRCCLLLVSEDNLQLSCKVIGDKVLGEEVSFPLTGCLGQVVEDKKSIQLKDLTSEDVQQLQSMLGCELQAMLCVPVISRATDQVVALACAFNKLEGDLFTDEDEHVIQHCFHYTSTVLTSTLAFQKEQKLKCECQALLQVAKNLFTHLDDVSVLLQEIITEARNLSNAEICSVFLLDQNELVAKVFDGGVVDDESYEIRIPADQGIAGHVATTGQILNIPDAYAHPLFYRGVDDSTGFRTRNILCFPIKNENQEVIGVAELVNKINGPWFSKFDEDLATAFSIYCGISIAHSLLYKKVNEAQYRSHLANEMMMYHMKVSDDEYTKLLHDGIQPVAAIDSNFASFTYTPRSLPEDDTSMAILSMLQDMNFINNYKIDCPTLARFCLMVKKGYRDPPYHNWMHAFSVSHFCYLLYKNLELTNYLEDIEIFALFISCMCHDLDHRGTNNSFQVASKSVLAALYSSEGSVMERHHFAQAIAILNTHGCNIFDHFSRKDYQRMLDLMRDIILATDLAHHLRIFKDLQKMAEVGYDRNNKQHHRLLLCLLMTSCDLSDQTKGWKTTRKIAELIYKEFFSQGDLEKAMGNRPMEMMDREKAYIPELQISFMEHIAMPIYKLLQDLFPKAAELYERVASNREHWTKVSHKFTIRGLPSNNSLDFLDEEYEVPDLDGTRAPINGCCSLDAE

With `Cc1nc(-c2nnn([C@H](C)c3ccc(C(F)(F)F)cc3Cl)c2C)cc(=O)[nH]1` (single isomer, unassigned) [Example 43], the Ki is 4.6 nM.

Regarding `Cc1nc(-c2nnn3c2CCC[C@@]3(C)c2ccc(C(F)(F)F)cc2)cc(=O)[nH]1` (single isomer, unassigned) [Example 54], the Ki came out at 16.2 nM. The same measure, in the same setting: for `Cc1nc(-c2cn(C(c3ccc(C(F)(F)F)cc3F)C(C)C)nn2)cc(=O)[nH]1` (single isomer, unassigned) [Example 40, (S)- or (R)-6-(1-(1-(2-fluoro-4-(trifluoromethyl)phenyl)-2-methylpropyl)-1H-1,2,3-triazol-4-yl)-2-methylpyrimidin-4(3H)-one] the value was 22.6 nM; for `COc1ccc(Cc2nc(-c3nnn4c3CCC[C@]4(C)c3ccc(C(F)(F)F)cc3F)cc(=O)[nH]2)cc1` (single isomer, unassigned) [Example 90], 1900 nM. Same read-out and setting: for `Cc1nc(-n2ncc([C@H](C)c3ccc(C(F)(F)F)cc3Cl)n2)cc(=O)[nH]1` (single isomer, unassigned) [Example 82] the value was 221 nM; for `Cc1nc(-c2nnn3c2CCCCC3(C)c2ccc(C(F)(F)F)cc2F)cc(=O)[nH]1` (single isomer, unassigned) [Example 93, (S)- or (R)-6-(8-(2-Fluoro-4-(triflouromethyl)phenyl)-8-methyl-5,6,7,8-tetrahydro-4H-[1,2,3]triazolo[1,5-a]azepin-3-yl)-2-methylpyrimidin-4(3H)-one], 67 nM. Still for that read-out and setting: then `CCc1ccc(C(C)n2ncc(-c3cc(=O)[nH]c(C)n3)n2)c(Cl)c1` (single isomer, unassigned) [Example 7, (R)- or (S)-6-(2-(1-(2-chloro-4-ethylphenyl)ethyl)-2H-1,2,3-triazol-4-yl)-2-methylpyrimidin-4(3H)-one], with 60.9 nM; and `Cc1nc(-c2cn([C@@H](C)c3ccc(C(F)(F)F)cc3Cl)nn2)cc(=O)[nH]1` (single isomer, unassigned) [Example 35], with 41.5 nM; and `CCCCc1c(-c2cc(=O)[nH]c(C)n2)nnn1C(C)c1ccc(C(F)(F)F)cc1Cl` (single isomer, unassigned) [Example 46, (S)- or (R)-6-(5-butyl-1-(1-(2-chloro-4-(trifluoromethyl)phenyl)ethyl)-1H-1,2,3-triazol-4-yl)-2-methylpyrimidin-4(3H)-one], with 1100 nM. In the case of `Cc1nc(-c2cnn(C(C)c3ccc(C(F)(F)F)cc3F)n2)cc(=O)[nH]1` (single isomer, unassigned) [Example 4, (S)- or (R)-6-(2-(1-(2-fluoro-4-(trifluoromethyl)phenyl)ethyl)-2H-1,2,3-triazol-4-yl)-2-metylpyrimidin-4(3H)-one], the inhibition constant (Ki) was determined as 1030 nM. Same read-out and setting: for `Cc1nc(-c2nnc3n2CCC[C@]3(C)c2ccc(C(F)(F)F)cc2F)cc(=O)[nH]1` (single isomer, unassigned) [Example 80] the value was 2060 nM; for `Cc1nc(-c2nnc(C(C)(C)c3ccc(C(F)(F)F)cc3F)n2C)cc(=O)[nH]1` [Example 69, 6-(5-(2-(2-Fluoro-4-(trifluoromethyl)phenyl)propan-2-yl)-4-methyl-4H-1,2,4-triazol-3-yl)-2-methylpyrimidin-4(3H)-one], 1130 nM; for `Cc1nc(-c2cn(C(c3ccc(C(F)(F)F)cc3F)C3CC3)nn2)cc(=O)[nH]1` (single isomer, unassigned) [Example 42], 9.7 nM.

As to `Cc1nc(-c2cn(C(C)c3cc(F)c(C(F)(F)F)cc3F)nn2)cc(=O)[nH]1` (single isomer, unassigned) [Example 23, (R)- or (S)-6-(1-(1-(2,5-difluoro-4-(triufluoromethyl)phenyl)ethyl)-1H-1,2,3-triazol-4-yl)-2-methylpyrimidin-4(3H)-one], the inhibition constant (Ki) is 203 nM. Still for that read-out and setting: then `CCC1(c2ccc(C(F)(F)F)cc2)CCCc2c(-c3cc(=O)[nH]c(C)n3)nnn21` (single isomer, unassigned) [Example 57, (S)- or (R)-6-(7-ethyl-7-(4-(trifluoromethyl)phenyl)-4,5,6,7-tetrahydro-[1,2,3]triazolo[1,5-a]pyridin-3-yl)-2-methylpyrimidin-4(3H)-one], with 29 nM. Same read-out and setting: for `Cc1nc(-c2cn(C(C)c3ccc(C4CC4)cc3Cl)nn2)cc(=O)[nH]1` (single isomer, unassigned) [Example 26, (S)- or (R)-6-(1-(1-(2-chloro-4-cyclopropylphenyl)ethyl)-1H-1,2,3-triazol-4-yl)-2-methylpyrimidin-4(3H)-one] the value was 3.2 nM; for `Cc1nc(-c2cn(C(c3ccc(C(F)(F)F)cc3F)C(C)C)nn2)cc(=O)[nH]1` (single isomer, unassigned) [Example 39, (R)- or (S)-6-(1-(1-(2-fluoro-4-(trifluoromethyl)phenyl)-2-methylpropyl)-1H-1,2,3-triazol-4-yl)-2-methylpyrimidin-4(3H)-one], 7.2 nM.

For the compound `Cc1nc(-c2nnn3c2CCCC3c2ccc(C(F)(F)F)cc2F)cc(=O)[nH]1` (single isomer, unassigned) [Example 49, (R)- or (S)-6-(7-(2-fluoro-4-(trifluoromethyl)phenyl)-4,5,6,7-tetrahydro-[1,2,3]triazolo[1,5-a]pyridin-3-yl)-2-methylpyrimidin-4(3H)-one], the inhibition at 3 µM came to 33%. In the case of `Cc1nc(-c2nnc(C(C)c3ccc(C(F)(F)F)cc3F)n2C)cc(=O)[nH]1` (single isomer, unassigned) [Example 64, (S)- or (R)-6-(5-(1-(2-fluoro-4-(trifluoromethyl)-phenyl)ethyl)-4-methyl-4H-1,2,4-triazol-3-yl)-2-methylpyrimidin-4(3H)-one], the Ki is 23.3 nM. Same read-out and setting: then `Cc1nc(-c2nnn3c2CCCC3(C)c2ccc(C(F)(F)F)cc2F)cc(=O)[nH]1` (single isomer, unassigned) [Example 59, (S)- or (R)-6-(7-(2-fluoro-4-(trifluoromethyl)phenyl)-7-methyl-4,5,6,7-tetrahydro-[1,2,3]triazolo[1,5-a]pyridin-3-yl)-2-methylpyrimidin-4(3H)-one], with 178 nM; and `Cc1nc(-c2cn(C(C)(C)c3ccc(C(F)(F)F)cc3Cl)nn2)cc(=O)[nH]1` [Example 30, 6-(1-(2-(2-chloro-4-(trifluoromethyl)phenyl)propan-2-yl)-1H-1,2,3-triazol-4-yl)-2-methylpyrimidin-4(3H)-one], with 1.7 nM; and `Cc1nc(-c2cn([C@@H](C)c3ccc(C(F)(F)F)cc3Cl)nn2)cc(=O)[nH]1` (single isomer, unassigned) [Example 36], with 1.7 nM. The same measure, in the same setting: then `CCCCc1c(-c2cc(=O)[nH]c(C)n2)nnn1C(C)c1ccc(C(F)(F)F)cc1Cl` (single isomer, unassigned) [Example 45, (R)- or (S)-6-(5-butyl-1-(1-(2-chloro-4-(trifluoromethyl)phenyl)ethyl)-1H-1,2,3-triazol-4-yl)-2-methylpyrimidin-4(3H)-one], with 9.2 nM; and `Cc1nc(-c2cnn(C(C)c3ccc(C(F)(F)F)cc3C)n2)cc(=O)[nH]1` (single isomer, unassigned) [Example 5, (R)- or (S)-2-methyl-6-(2-(1-(2-methyl-4-(trifluoromethyl)phenyl)ethyl)-2H-1,2,3-triazol-4-yl)pyrimidin-4(3H)-one], with 52.2 nM. As to `Cc1nc(-c2nnn3c2CCC[C@H]3c2ccc(C(F)(F)F)cc2)cc(=O)[nH]1` (single isomer, unassigned) [Example 48], the inhibition constant Ki stood at 42.4 nM. On to `Cc1nc(-n2cc([C@H](C)c3ccc(C(F)(F)F)cc3Cl)nn2)cc(=O)[nH]1` (single isomer, unassigned) [Example 74], for which the Ki came to 0.42 nM.

The term Ki denotes a dissociation constant, usually derived from enzyme kinetics or from competition with a known ligand. As a reminder, the inhibition is how much of the control response was suppressed.
